Test results reported in patent publication US20130252930A1 (BIOMARIN PHARMACEUTICAL INC., priority 2010, published 2013).
Where two headings read alike, the source gives them in different places. Each block holds one molecule with its values, some of them ahead of it.

Key:
Type in all cases: biochemical
[1] = molecular target: T1, CYP17 (human testicular microsome) (Homo sapiens, UniProt P05093); assay: CYP17 enzymatic assay (IC50) (Biological Example 4); settings: human testicular microsome
T1 construct: using microsomal fraction from human testis (Celsis Cat #S00110) as the enzyme source; tissue Celsis S00110; host or cells: human testis microsomal fraction
T1 sequence (P05093 1-508): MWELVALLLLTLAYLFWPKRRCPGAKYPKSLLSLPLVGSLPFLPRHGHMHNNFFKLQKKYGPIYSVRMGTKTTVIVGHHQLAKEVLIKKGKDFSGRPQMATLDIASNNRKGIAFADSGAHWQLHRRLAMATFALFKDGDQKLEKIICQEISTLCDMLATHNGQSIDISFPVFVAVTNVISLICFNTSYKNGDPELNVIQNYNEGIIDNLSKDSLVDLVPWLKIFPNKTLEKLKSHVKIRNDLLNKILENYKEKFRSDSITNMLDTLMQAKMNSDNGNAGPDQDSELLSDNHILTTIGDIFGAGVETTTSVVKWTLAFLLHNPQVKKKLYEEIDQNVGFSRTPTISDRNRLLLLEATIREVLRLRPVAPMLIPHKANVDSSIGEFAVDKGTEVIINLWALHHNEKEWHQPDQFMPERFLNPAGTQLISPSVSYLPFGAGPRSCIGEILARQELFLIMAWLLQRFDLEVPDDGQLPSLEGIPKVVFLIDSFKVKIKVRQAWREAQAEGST

[2] = molecular target: T1, CYP17 (human testicular microsome); assay: CYP17 enzymatic assay (% inhibition at 1 nM) (Biological Example 12)
[3] = molecular target: T1, CYP17 (human testicular microsome); assay: CYP17 enzymatic assay (% inhibition at 10 nM), version 1 (Biological Example 5); settings: 10 nM compound, DHEA by ELISA, read-out: Biological Example No. 5: CYP17 percent inhibition at 10 nM (version 1)
[4] = read-out: Biological Example No. 4: CYP17 enzymatic assay IC50
[5] = compound at 1 nM, read-out: Biological Example No. 12: CYP17 enzymatic assay % inhibition at 1 nM
[6] = read-out: CYP17 enzymatic assay IC50 (Biological Example No. 4)
[7] = compound at 1 nM, read-out: CYP17 enzymatic assay % inhibition at 1 nM (Biological Example No. 12)
[8] = test compound at 1 nM, read-out: CYP17 enzymatic assay percent inhibition at 1 nM (Biological Example No. 12)

SMILES: CC1=C2CC[C@@H]3[C@H](CC[C@]4(C)C(c5cccnc5)=CC[C@@H]34)[C@@]2(C)CCC1O (mixture of isomers) [Compound 302, (10R,13S)-4,10,13-trimethyl-17-(pyridin-3-yl)-2,3,6,7,8,9,10,11,12,13,14,15-dodecahydro-1H-cyclopenta[a]phenanthren-3-ol]
IC50 [1, 4]: < 11 nM | inhibition at 0.001 µM [2, 5]: 10 to 50%

inhibition at 0.01 µM [3]: 1 to 50%
SMILES: Cc1cncc(C2=CC[C@H]3[C@@H]4CCN5CCCCC[C@]5(C)[C@H]4CC[C@]23C)c1 [Compound 45, (11aR,13aS)-11a,13a-dimethyl-1-(5-methylpyridin-3-yl)-3a,3b,4,5,7,8,9,10,11,11a,11b,12,13,13a-tetradecahydro-3H-azepino[2,1-a]cyclopenta[f]isoquinoline]

inhibition at 0.01 µM [3]: 1 to 50%
SMILES: COc1cncc(C2=CC[C@H]3[C@@H]4CCN5CCCCC[C@]5(C)[C@H]4CC[C@]23C)c1 [Compound 47, (11aR,13aS)-1-(5-methoxypyridin-3-yl)-11a,13a-dimethyl-3a,3b,4,5,7,8,9,10,11,11a,11b,12,13,13a-tetradecahydro-3H-azepino[2,1-a]cyclopenta[f]isoquinoline]

SMILES: CCc1cncc(C2=CC[C@H]3[C@@H]4CC=C5CCCC[C@]5(C)[C@H]4CC[C@]23C)c1 [Compound 64, 3-((10R,13S)-10,13-dimethyl-2,3,4,7,8,9,10,11,12,13,14,15-dodecahydro-1H-cyclopenta[a]phenanthren-17-yl)-5-ethylpyridine]
inhibition at 0.01 µM [3]: 1 to 50%

SMILES: Cc1cncc(C2=CC[C@H]3[C@@H]4CC=C5CCCC[C@]5(C)[C@H]4CC[C@]23C)c1 [Compound 65, 3-((10R,13S)-10,13-dimethyl-2,3,4,7,8,9,10,11,12,13,14,15-dodecahydro-1H-cyclopenta[a]phenanthren-17-yl)-5-methylpyridme]
inhibition at 0.01 µM [3]: 50 to 80%

SMILES: COc1cncc(C2=CC[C@H]3[C@@H]4CC=C5CCCC[C@]5(C)[C@H]4CC[C@]23C)c1 [Compound 66, 3-((10R,13S)-10,13-dimethyl-2,3,4,7,8,9,10,11,12,13,14,15-dodecahydro-1H-cyclopenta[a]phenanthren-17-yl)-5-methoxypyridine]
inhibition at 0.01 µM [3]: 50 to 80%

IC50 ([1]; DHEA by ELISA, read-out: Biological Example No. 4: CYP17 enzymatic assay IC50): < 11 nM
SMILES: CC(=O)O[C@H]1CC[C@@]2(C)C(=CC[C@H]3C4=CC=C(n5ccnc5)[C@@]4(C)CC[C@@H]32)C1 [Compound 73, (3S,10R,13S)-17-(1H-imidazol-1-yl)-10,13-dimethyl-2,3,4,7,8,9,10,11,12,13-decahydro-1H-cyclopenta[a]phenanthren-3-yl acetate]

inhibition at 0.01 µM [3]: 1 to 50%
SMILES: C[C@]12CCCCC[C@@H]1CC[C@@H]1[C@@H]2CC[C@]2(C)C(c3cccnc3)=CC[C@@H]12 [Compound 90, 3-((3aS,3bR,5aR,10aS,10bS,12aS)-10a,12a-dimethyl-3,3a,3b,4,5,5a,6,7,8,9,10,10a,10b,11,12,12a-hexadecahydrocyclohepta[a]cyclopenta[f]naphthalen-1-yl)pyridine]

inhibition at 0.01 µM [3]: 1 to 50%
SMILES: Cc1cncc(C2=CC[C@H]3[C@@H]4CC[C@H]5CCCCC[C@]5(C)[C@H]4CC[C@]23C)c1 [Compound 91, 3-((3aS,3bR,5aR,10aS,10bS,12aS)-10a,12a-dimethyl-3,3a,3b,4,5,5a,6,7,8,9,10,10a,10b,11,12,12a-hexadecahydrocyclohepta[a]cyclopenta[f]naphthalen-1-yl)-5-methylpyridine]

SMILES: C[C@]12CC[C@@H](NC(=O)C3CCC3)CC1=CCC1C2CC[C@]2(C)C(c3cccnc3)=CCC12 (stereo partly drawn) [Compound 226, N-((3R,10R,13S)-10,13-dimethyl-17-(pyridin-3-yl)-2,3,4,7,8,9,10,11,12,13,14,15-dodecahydro-1H-cyclopenta[a]phenanthren-3-yl)cyclobutanecarboxamide]
IC50 [1, 6]: < 11 nM | inhibition at 0.001 µM [2, 7]: > 50%

SMILES: Cc1cncc(C2=CC[C@H]3[C@@H]4CC=C5C[C@H](NC(=O)C6CC6)CC[C@]5(C)[C@H]4CC[C@]23C)c1 [Compound 227, N-((3R,10R,13S)-10,13-dimethyl-17-(5-methylpyridin-3-yl)-2,3,4,7,8,9,10,11,12,13,14,15-dodecahydro-1H-cyclopenta[a]phenanthren-3-yl)cyclopropanecarboxamide]
IC50 [1, 6]: < 11 nM | inhibition at 0.001 µM [2, 7]: > 50%

SMILES: CC1=C2CCC3C4=CC=C(c5cccnc5)[C@@]4(C)CCC3[C@@]2(C)CCC1O (stereo partly drawn) [Compound 299, (10R,13S)-4,10,13-trimethyl-17-(pyridin-3-yl)-2,3,6,7,8,9,10,11,12,13-decahydro-1H-cyclopenta[a]phenanthren-3-ol]
IC50 [1, 6]: < 11 nM | inhibition at 0.001 µM [2, 7]: < 10%

SMILES: C[C@]12CC[C@H]3[C@@H](CC(F)C4(O)CC(=O)CC[C@]34C)[C@@H]1CC=C2c1cccnc1 (stereo partly drawn) [Compound 310e, (10R,13S)-6-fluoro-5-hydroxy-10,13-dimethyl-17-(pyridin-3-yl)-4,5,6,7,8,9,10,11,12,13,14,15-dodecahydro-1H-cyclopenta[a]phenanthren-3(2H)-one]
IC50 [1, 4]: < 11 nM | inhibition at 0.001 µM [2, 5]: > 50%

SMILES: C[C@]12CC[C@H]3[C@@H](CC(F)C4(O)CC(=O)CC[C@]34C)[C@@H]1CC=C2c1cncc(F)c1 (stereo partly drawn) [Compound 324, (10R,13S)-6-fluoro-17-(5-fluoropyridin-3-yl)-5-hydroxy-10,13-dimethyl-4,5,6,7,8,9,10,11,12,13,14,15-dodecahydro-1H-cyclopenta[a]phenanthren-3(2H)-one]
IC50 [1, 4]: < 11 nM | inhibition at 0.001 µM [2, 5]: > 50%

IC50 [1, 4]: > 25 nM
SMILES: C[C@]12CCC3C(CCC4CC(F)(F)CC[C@@]43C)C1=CC=C2c1cncc(F)c1 (stereo partly drawn) [Compound 402, 3-((10S,13S)-3,3-difluoro-10,13-dimethyl-2,3,4,5,6,7,8,9,10,11,12,13-dodecahydro-1H-cyclopenta[a]phenanthren-17-yl)-5-fluoropyridine]

SMILES: C[C@]12CCC3C(CCC4CC(F)(F)CC[C@@]43C)C1=CC=C2c1cccnc1 (stereo partly drawn) [Compound 403, 3-((10S,13S)-3,3-difluoro-10,13-dimethyl-2,3,4,5,6,7,8,9,10,11,12,13-dodecahydro-1H-cyclopenta[a]phenanthren-17-yl)pyridine]
IC50 [1, 4]: < 11 nM

SMILES: C[C@]12CCC(F)(F)CC1CCC1C2CC[C@]2(C)C(c3cccnc3)=CCC12 (stereo partly drawn) [Compound 404, 3-((10S,13S)-3,3-difluoro-10,13-dimethyl-2,3,4,5,6,7,8,9,10,11,12,13,14,15-tetradecahydro-1H-cyclopenta[a]phenanthren-17-yl)pyridine]
IC50 [1, 4]: < 11 nM

IC50 [1, 6]: > 25 nM
SMILES: C[C@]12CCC(F)(F)CC1CCC1C2CC[C@]2(C)C(c3cncc(F)c3)=CCC12 (stereo partly drawn) [Compound 405, 3-((10S,13S)-3,3-difluoro-10,13-dimethyl-2,3,4,5,6,7,8,9,10,11,12,13,14,15-tetradecahydro-1H-cyclopenta[a]phenanthren-17-yl)-5-fluoropyridine]

SMILES: C[C@]12CCC(F)(F)CC1CCC1C2CC[C@]2(C)C(n3ccnc3)=CCC12 (stereo partly drawn) [Compound 406, 1-((10S,13S)-3,3-difluoro-10,13-dimethyl-2,3,4,5,6,7,8,9,10,11,12,13,14,15-tetradecahydro-1H-cyclopenta[a]phenanthren-17-yl)-1H-imidazole]
IC50 [1, 6]: < 11 nM

SMILES: CC1CC2C3CC=C(c4cccnc4)[C@@]3(C)CCC2[C@@]2(C)CC[C@H](O)CC12O (stereo partly drawn) [Compound 410, (3S,10R,13S)-6,10,13-trimethyl-17-(pyridin-3-yl)-2,3,4,5,6,7,8,9,10,11,12,13,14,15-tetradecahydro-1H-cyclopenta[a]phenanthrene-3,5-diol]
IC50 [1, 4]: < 11 nM | inhibition at 0.001 µM [2, 5]: > 50%

IC50 [1, 6]: < 11 nM | inhibition at 0.001 µM [2, 7]: > 50%
SMILES: Cc1cncc(C2=CC=C3[C@@H]4CCC5CC(=O)NCC[C@]5(C)[C@H]4CC[C@]23C)c1 (stereo partly drawn) [Compound 460, (5aS,5bS,7aS,10bR)-5a,7a-dimethyl-8-(5-methylpyridin-3-yl)-3,4,5,5a,5b,6,7,7a,10b,11,12,12a-dodecahydrocyclopenta[5,6]naphtho[1,2-d]azepin-2(1H)-one]

SMILES: CCc1ccncc1C1=CC=C2C3CCC4C[C@@H](OC(C)=O)CC[C@]4(C)C3CC[C@]12C (stereo partly drawn) [Compound 487, (3S,10S,13S)-17-(4-ethylpyridin-3-yl)-10,13-dimethyl-2,3,4,5,6,7,8,9,10,11,12,13-dodecahydro-1H-cyclopenta[a]phenanthren-3-yl acetate]
inhibition at 0.001 µM [2, 8]: 10 to 50%

SMILES: CCc1ccncc1C1=CC=C2C3CCC4CC(=O)CC[C@]4(C)C3CC[C@]12C (stereo partly drawn) [Compound 488, (10S,13S)-17-(4-ethylpyridin-3-yl)-10,13-dimethyl-4,5,6,7,8,9,10,11,12,13-decahydro-1H-cyclopenta[a]phenanthren-3(2H)-one]
inhibition at 0.001 µM [2, 8]: 10 to 50%
